Experimental data taken from patent US11597724B2, “Herbicidally active 3-phenylisoxazoline-5-carboxamides of tetrahydro and dihydrofuran carboxylic acids and esters” (Bayer Aktiengesellschaft, priority 2017, dated 2023).

Assays:
Assay type in all cases: in vivo
[1] = system: Stellaria media; experiment: Post-emergence herbicidal activity against STEME; settings: dosage 320 g/ha, rated about 3 weeks after treatment; for pest or weed control at 320 g/ha: Stellaria media, 504 h
Experimental: (§1) STEME: Stellaria media VERPE: Veronica persica 2. Post-Emergence Herbicidal Action and Crop Plant Compatibility Seeds of monocotyledonous and dicotyledonous weeds and crop plants are placed in sandy loam in plastic or wood-fiber pots, covered with soil and cultivated in a greenhouse under controlled growth conditions. 2 to 3 weeks after sowing, the test plants are treated at the one-leaf stage. The compounds of the invention, formulated in the form of wettable powders (WP) or as emulsion concentrates (EC), are then sprayed onto the green parts of the plants as aqueous suspension or emulsion with addition of 0.5% additive at a water application rate of 600 l/ha (converted). After the test plants had been kept in the greenhouse under optimum growth conditions for about 3 weeks, the activity of the preparations is rated visually in comparison to untreated controls. For example, 100% activity=the plants have died, 0% activity=like control plants.

[2] = system: Polygonum convolvulus; experiment: Post-emergence herbicidal activity against POLCO; settings: dosage 320 g/ha, rated about 3 weeks after treatment; for pest or weed control at 320 g/ha: Fallopia convolvulus, 504 h
Experimental: as §1, with “POLCO: Polygonum convolvulus SETVI: Setaria viridis” for “STEME: Stellaria media VERPE: Veronica persica”

[3] = system: Setaria viridis; experiment: Post-emergence herbicidal activity against SETVI; settings: dosage 320 g/ha, rated about 3 weeks after treatment; for pest or weed control at 320 g/ha: Setaria viridis, 504 h
Experimental: as §1, with “POLCO: Polygonum convolvulus SETVI: Setaria viridis” for “STEME: Stellaria media VERPE: Veronica persica”

[4] = system: Viola tricolor; experiment: Post-emergence herbicidal activity against VIOTR; settings: dosage 320 g/ha, rated about 3 weeks after treatment
Experimental: as §1, with “VIOTR: Viola tricolor” for “STEME: Stellaria media VERPE: Veronica persica”

[5] = system: Alopecurus myosuroides; experiment: Post-emergence herbicidal activity against ALOMY; settings: dosage 320 g/ha, rated about 3 weeks after treatment; for pest or weed control at 320 g/ha: Alopecurus myosuroides, 504 h
Experimental: as §1, with “ABUTH: Abutilon theophrasti ALOMY: Alopecurus myosuroides” for “STEME: Stellaria media VERPE: Veronica persica”

[6] = system: Hordeum murinum; experiment: Post-emergence herbicidal activity against HORMU; settings: dosage 320 g/ha
Experimental: as §1, with “ECHCG: Echinochloa crus-galli HORMU: Hordeum murinum” for “STEME: Stellaria media VERPE: Veronica persica”

[7] = system: Abutilon theophrasti; experiment: Post-emergence herbicidal activity against ABUTH; settings: dosage 320 g/ha, rated about 3 weeks after treatment
Experimental: as §1, with “ABUTH: Abutilon theophrasti ALOMY: Alopecurus myosuroides” for “STEME: Stellaria media VERPE: Veronica persica”

[8] = system: Lolium rigidum; experiment: Post-emergence herbicidal activity against LOLRI; settings: dosage 320 g/ha, rated about 3 weeks after treatment
Experimental: as §1, with “LOLRI: Lolium rigidum PHBPU: Pharbitis purpurea” for “STEME: Stellaria media VERPE: Veronica persica”

[9] = system: Amaranthus retroflexus; experiment: Post-emergence herbicidal activity against AMARE; settings: dosage 320 g/ha, rated about 3 weeks after treatment; for pest or weed control at 320 g/ha: Amaranthus retroflexus, 504 h
Experimental: as §1, with “AMARE: Amaranthus retroflexus AVEFA: Avena fatua” for “STEME: Stellaria media VERPE: Veronica persica”

[10] = system: Pharbitis purpurea; experiment: Post-emergence herbicidal activity against PHBPU; settings: dosage 320 g/ha, rated about 3 weeks after treatment; for pest or weed control at 320 g/ha: Ipomoea purpurea, 504 h
Experimental: as §1, with “LOLRI: Lolium rigidum PHBPU: Pharbitis purpurea” for “STEME: Stellaria media VERPE: Veronica persica”

[11] = system: Veronica persica; experiment: Post-emergence herbicidal activity against VERPE; settings: dosage 320 g/ha; for pest or weed control at 320 g/ha: Veronica persica, 504 h
Experimental: as §1

[12] = system: Echinochloa crus-galli; experiment: Post-emergence herbicidal activity against ECHCG; settings: dosage 320 g/ha, rated about 3 weeks after treatment; for pest or weed control at 320 g/ha: Echinochloa crus-galli, 504 h
Experimental: as §1, with “ECHCG: Echinochloa crus-galli HORMU: Hordeum murinum” for “STEME: Stellaria media VERPE: Veronica persica”

[13] = system: Avena fatua; experiment: Post-emergence herbicidal activity against AVEFA; settings: dosage 320 g/ha, rated about 3 weeks after treatment; for pest or weed control at 320 g/ha: Avena fatua, 504 h
Experimental: as §1, with “AMARE: Amaranthus retroflexus AVEFA: Avena fatua” for “STEME: Stellaria media VERPE: Veronica persica”

[14] = Post-emergence treatment, summary over harmful plants; settings: 504 h, application rate of 0.32 kg of active substance or less per hectare, read-out: herbicidal action, post-emergence treatment (very good herbicidal activity)
Experimental: 2. Post-Emergence Herbicidal Action and Crop Plant Compatibility
as §1, with “Seeds” for “STEME: Stellaria media VERPE: Veronica persica 2. Post-Emergence Herbicidal Action and Crop Plant Compatibility Seeds”
As shown by the results, compounds according to the invention such as, for example, the compounds No. I-35 and other compounds from the tables (for example I-28, I-38, I-01, I-19, I-36, I-29, I-32, I-11, I-12, I-37, I-06, I-09, I-33, I-34, I-13, I-04, I-26, I-21, I-30, I-05, I-03, I-20, I-27, I-14, I-10, I-23, I-07, I-25, I-02, I-08, I-24, I-41, I-42, I-43, I-44, I-46, I-49, I-54, I-55, I-56) have, when used for post-emergence treatment, very good herbicidal activity (80% to 100% herbicidal action) against harmful plants such as Abutilon theophrasti, Alopecurus myosuroides, Amaranthus retroflexus, Avena fatua, Echinochloa crus-galli, Hordeum murinum, Lolium rigidum, Pharbitis purpurea, Polygonum convolvulus, Setaria viridis, Stellaria media, Veronica persica and Viola tricolor at an application rate of 0.32 kg of active substance or less per hectare.

| SMILES | pest or weed control at 320 g/ha [2] | pest or weed control at 320 g/ha [3] | pest or weed control at 320 g/ha [5] | pest or weed control at 320 g/ha [10] | pest or weed control at 320 g/ha [11] | pest or weed control at 320 g/ha [12] | pest or weed control at 320 g/ha [13] | also measured |
| --- | --- | --- | --- | --- | --- | --- | --- | --- |
| CC(F)(F)C1(C(=O)NC2COC(C(=O)O)C2)CC(c2cc(F)cc(F)c2)=NO1 (stereo not shown) [I-50] | – | – | – | – | – | – | – | Post-emergence herbicidal activity against STEME in % [1]: 90%; Post-emergence herbicidal activity against POLCO in % [2]: 90%; Post-emergence herbicidal activity against SETVI in % [3]: 90%; Post-emergence herbicidal activity against VIOTR in % [4]: 90%; Post-emergence herbicidal activity against ALOMY in % [5]: 90%; Post-emergence herbicidal activity against HORMU in % [6]: 100%; Post-emergence herbicidal activity against ABUTH in % [7]: 90%; Post-emergence herbicidal activity against LOLRI in % [8]: 90%; Post-emergence herbicidal activity against AMARE in % [9]: 80%; Post-emergence herbicidal activity against PHBPU in % [10]: 90%; Post-emergence herbicidal activity against VERPE in % [11]: 90%; Post-emergence herbicidal activity against ECHCG in % [12]: 90%; Post-emergence herbicidal activity against AVEFA in % [13]: 100% |
| C=C[C@@]1(C(=O)N[C@H]2CO[C@@H](C(=O)OC)C2)CC(c2cc(F)cc(F)c2)=NO1 (mixture of isomers) [I-22, methyl cis-4-[[(5R)-3-(3,5-difluorophenyl)-5-vinyl-4H-isoxazole-5-carbonyl]amino]tetrahydrofuran-2-carboxylate] | 90% | – | – | – | – | – | – | – |
| CC1(C(=O)N[C@H]2CO[C@@H](C(=O)O)C2)CC(c2cccc(F)c2)=NO1 (relative stereo) [I-20, cis-4-[[3-(3-fluorophenyl)-5-methyl-4H-isoxazole-5-carbonyl]amino]tetrahydrofuran-2-carboxylic acid] | 80% | 80% | 90% | 80% | 90% | 80% | 90% | pest or weed control at 320 g/ha [1]: 80%; pest or weed control at 320 g/ha [9]: 80%; pest or weed control at 320 g/ha [14]: 80 to 100% |
| COC(=O)[C@H]1C[C@@H](NC(=O)C2(C)CC(c3cccc(F)c3)=NO2)CO1 (relative stereo) [I-13, methyl cis-4-[[3-(3-fluorophenyl)-5-methyl-4H-isoxazole-5-carbonyl]amino]tetrahydrofuran-2-carboxylate] | 80% | 80% | 90% | 90% | 80% | 80% | 90% | pest or weed control at 320 g/ha [14]: 80 to 100% |
| CCOC(=O)C1(NC(=O)C2(C)CC(c3cc(F)cc(F)c3)=NO2)CCOC1 (stereo not shown) [I-18, ethyl 3-[[3-(3,5-difluorophenyl)-5-methyl-4H-isoxazole-5-carbonyl]amino]tetrahydrofuran-3-carboxylate] | – | – | 80% | – | 80% | – | 100% | – |
| COC(=O)C1(NC(=O)C2(C)CC(c3cc(F)cc(F)c3)=NO2)CCOC1 (stereo not shown) [I-17, methyl 3-[[3-(3,5-difluorophenyl)-5-methyl-4H-isoxazole-5-carbonyl]amino]tetrahydrofuran-3-carboxylate] | 90% | – | – | – | – | – | 80% | – |
| COC(=O)[C@]1(OC)C[C@H](NC(=O)C2(C)CC(c3cccc(F)c3)=NO2)CO1 (stereo partly drawn) [I-40, methyl (2S,4S)-4-[[3-(3-fluorophenyl)-5-methyl-4H-isoxazole-5-carbonyl]amino]-2-methoxytetrahydrofuran-2-carboxylate] | 80% | 80% | 90% | 90% | 80% | 80% | – | pest or weed control at 320 g/ha [1]: 80%; pest or weed control at 320 g/ha ([6]; Hordeum murinum, 504 h): 90%; pest or weed control at 320 g/ha [9]: 80% |
